The source of these data is patent publication US20040023952A1 (priority 2002, published 2004).

The experiment has as its system V1 cortical cells. It counts as in vivo, rhesus monkeys (Macaca mulatta). As to conditions: for signal-to-noise ratio of cortical cells (response to appropriate stimuli divided by spontaneous discharge rate): FIG. 7; for peak response (maximum visually evoked response) of V1 cortical cells / spontaneous activity of V1 cortical cells: intracortical delivery through microelectrode; for peak response (maximum visually evoked response) of V1 cortical cells: FIG. 5; for spontaneous activity of V1 cortical cells: FIG. 6; for direction selectivity of a representative cortical cell / orientation selectivity of a representative cortical cell / peak response of a representative cortical cell / spontaneous activity of a representative cortical cell: single cell of old monkey, FIG. 10, three minutes after GABA or muscimol application, within five minutes of bicuculline. From the text: Extracellular single-neuron recording techniques were used to examine the stimulus selectivities of VI cells in very old rhesus monkeys showing normal optics and retinogeniculate projections. A total of 187 neurons were studied in 4 young rhesus monkeys (Maraca mulatta), and 254 neurons in 4 old rhesus monkeys. Subjects for physiological experiments were abbreviated as OM1-4 (for old monkey 1-4) and YM1-4 (for young monkey 1-4). Retinal data were obtained from one additional young macaque (YM5, Macaca fascicularis). Multiple ophthalmological exams were conducted to ensure optical and retinal health of all subjects prior to testing.
Subjects for this study were four young adult (7-9 year old) and four very old (28-30 year old) female rhesus monkeys (Macaca mullata). […] Thus, the 28-30 year old monkeys were considered old, whereas the 7-9 year old monkeys were at an age considered sexually mature. Retinal control data for FIG. 1 are provided from one additional young female Macaca facsicularis, which was used in previous studies. Onset latency data from YM4 are published. Monkeys were examined ophthalmoscopically, and no apparent optical or retinal problems were detected that would impair visual function. Retinal blood vessels, lens clarity and the maculae all appeared normal. All cells studied had receptive fields between 2 and 5 degrees from the fovea. Monkeys were prepared for electrophysiological recording using standard techniques consistent with Society for Neuroscience and National Institute of Health guidelines.
Subjects were sedated with Ketamine HC1 (Ketalar, Parke-Davis, Morris Plains, N.J.) and then anesthetized with halothane (5%; Halocarton Laboratories, River Edge, N.J.) in a 70:30 mixture of […]. Intravenous and tracheal cannulae were inserted, the animals were placed in a stereotaxic apparatus, and pressure points and incisions were infiltrated with a long-acting anesthetic (2% lidocaine HCI, Copley Pharmaccuticak, Canton, Mass.). A mixture of D-tubocurarine (0.4 mg per kg per hour) and gallamine triethiodide (7 mg per kg per hour) was infused intravenously to induce and maintain paralysis. Animals were ventilated, and anesthesia was maintained with a mixture of nitrous oxide (75%), oxygen (25%) and halothane (0.25-1.0%) as needed.
A small burr hole was made above the striate cortex (V1), and filled with a 4% solution of agar in saline and sealed with wax. The eyes were protected from desiccation with contact lenses; spectacle lenses and artificial pupils were used when needed to focus the eyes on a tangent screen positioned 228 cm from the retina. The locations of the optic discs and foveae were determined repeatedly during the course of each recording session. No visible deterioration in optics occurred during the experimental period (2-5 days).
Extracellular action potentials of isolated cortical cells were recorded with microelectrodes having impedances of 3-5 MΩ. The electrode was advanced using a hydraulic microdrive (David Kopf instruments, Tojunga, Calif.) to precisely position it. The position of the electrode was confirmed by determining the receptive filed positions of the cortical cells at the recording site. A1 V1 cells studied had receptive fields between about 3 and 7 degrees from the fovea.
After placing the microelectrode as in Example 1, visual stimuli were measured using a Tektronix (Beaverton, Oreg.) 608 display driven by a Picasso (Inning Cambridge, Mass.) image synthesizer and a texture/motion generator (Innisfree). The Picasso and texture/motion generator were computer controlled in conjunction with a hardware and software package from Cambridge Electronics Design (Cambridge, England). The center of the display screen was 171 cm from the animal's retina.
The physiological orientation biases and direction biases of cortical cell were studied quantitatively. The orientation of each drifting stimulus presented was orthogonal to its direction of motion. […]

`NCCCC(=O)O` [GABA, Gamma-aminobutyric acid]: the “direction selectivity of a representative cortical cell” value is “moderate direction selectivity”, the “orientation selectivity of a representative cortical cell” value is on record as “strong orientation”, the “peak response of a representative cortical cell” value is “peak response decreased” and the “spontaneous activity of a representative cortical cell” value is on record as “decreased as did its spontaneous activity”. Besides, under “old monkeys”, the “signal-to-noise ratio of cortical cells (response to appropriate stimuli divided by spontaneous discharge rate)” value was “increased signal-to-noise ratios dramatically”; the “peak response (maximum visually evoked response) of V1 cortical cells” value is “reduce the peak responses and spontaneous activity of cortical cells to the normal levels seen in young monkeys”; the “spontaneous activity of V1 cortical cells” value is “reduce the peak responses and spontaneous activity of cortical cells to the normal levels seen in young monkeys”. Further, for the setting “old monkeys, FIGS. 8 and 9”, the “number/proportion of orientation and direction selective cells in area V1” value is on record as “very close to what is found in normal young monkeys”. Moreover, the “time until effects are seen after drug administration” value (old monkeys, intracortical delivery, current 15-50 n amp for 1-3 minutes) is listed as “Three to five minutes”.
As for `NCc1cc(=O)[nH]o1` [muscimol], the “direction selectivity of a representative cortical cell” value was “very strong direction selectivity”, the “orientation selectivity of a representative cortical cell” value was “moderate orientation selectivity”, the “peak response of a representative cortical cell” value is reported as “decreased peak response” and the “spontaneous activity of a representative cortical cell” value is listed as “decreased spontaneous activity”. In addition, where the note is “old monkeys”, the “signal-to-noise ratio of cortical cells (response to appropriate stimuli divided by spontaneous discharge rate)” value is reported as “increased signal-to-noise ratios dramatically”; the “peak response (maximum visually evoked response) of V1 cortical cells” value is “reduce the peak responses and spontaneous activity of cortical cells to the normal levels seen in young monkeys”; the “spontaneous activity of V1 cortical cells” value was “reduce the peak responses and spontaneous activity of cortical cells to the normal levels seen in young monkeys”. Moreover, under “old monkeys, intracortical delivery”, the “time until drug effects wear off after administration ceases” value is “Five minutes after the discontinuation”.
